Test results taken from the supplement of paper PMC10307832.

Legend:
Assay in all cases: relative viability (nuclei count vs DMSO), 5 days (fraction); higher = more cells survive
[1] = system: LCLC-103H
Summary of the method: (§1)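 Nuclei were stained with Hoechst during a one-step fixation (final 0.05% Triton X-100, 1% formaldehyde, 1 ug/ml Hoechst) carried out 5 days after dosing, then counted on 4× images. The cells, lung cancer lines in 1536-well plates, had been dosed by pin tool the day after seeding with one drug alone or a fixed anchor-drug dose plus five library-drug doses (not always all listed) in √10 steps. Relative viability is the nuclei count in treated wells divided by that in vehicle wells, and each value is the median of duplicate plates.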

[2] = system: PC-14
Summary of the method: as §1

[3] = system: NCI-H596
Summary of the method: as §1

[4] = system: H3255
Summary of the method: as §1

[5] = system: NCI-H727
Summary of the method: as §1

[6] = system: LU99A
Summary of the method: as §1

[7] = system: NCI-H2228
Summary of the method: as §1

[8] = system: NCI-H23
Summary of the method: as §1

[9] = system: LC-2-ad
Summary of the method: as §1

[10] = system: NCI-H1563
Summary of the method: as §1

[11] = system: NCI-H1650
Summary of the method: as §1

[12] = system: 201T
Summary of the method: as §1

[13] = system: NCI-H460
Summary of the method: as §1

[14] = system: NCI-H2347
Summary of the method: as §1

[15] = system: PC-3 [JPC-3]
Summary of the method: as §1

[16] = system: A-427
Summary of the method: as §1

[17] = system: LCLC-97TM1
Summary of the method: as §1

[18] = system: HCC-44
Summary of the method: as §1

[19] = system: SW 1573
Summary of the method: as §1

[20] = system: LK-2
Summary of the method: as §1

[21] = system: COR-L23
Summary of the method: as §1

SMILES: O=c1cc(-c2cccc3c2Sc2ccccc2S3)oc(N2CCOCC2)c1 + C[C@@H](Oc1cc(-c2cnn(C3CCNCC3)c2)cnc1N)c1c(Cl)ccc(F)c1Cl [Crizotinib] (partner 1 µM)
- relative viability ([1]; first compound 0.08 µM): 1.06
- relative viability ([1]; first compound 0.253 µM): 1.07
- relative viability ([1]; first compound 0.8 µM): 1.06
- relative viability ([1]; first compound 2.53 µM): 1.05
- relative viability ([1]; first compound 8 µM): 1.05
- relative viability ([2]; first compound 0.08 µM): 0.979
- relative viability ([2]; first compound 0.253 µM): 1.13
- relative viability ([2]; first compound 0.8 µM): 0.945
- relative viability ([2]; first compound 2.53 µM): 0.899
- relative viability ([2]; first compound 8 µM): 0.868
- relative viability ([3]; first compound 0.08 µM): 0.96
- relative viability ([3]; first compound 0.253 µM): 1.08
- relative viability ([3]; first compound 0.8 µM): 0.982
- relative viability ([3]; first compound 2.53 µM): 0.891
- relative viability ([3]; first compound 8 µM): 0.806
- relative viability ([4]; first compound 0.08 µM): 0.89
- relative viability ([4]; first compound 0.253 µM): 0.992
- relative viability ([4]; first compound 0.8 µM): 1.02
- relative viability ([4]; first compound 2.53 µM): 0.747
- relative viability ([4]; first compound 8 µM): 1.26
- relative viability ([5]; first compound 0.253 µM): 0.892
- relative viability ([5]; first compound 2.53 µM): 0.724
- relative viability ([5]; first compound 8 µM): 0.868
- relative viability ([6]; first compound 0.08 µM): 0.552
- relative viability ([6]; first compound 0.253 µM): 0.574
- relative viability ([6]; first compound 0.8 µM): 0.932
- relative viability ([6]; first compound 2.53 µM): 0.596
- relative viability ([6]; first compound 8 µM): 0.701
- relative viability ([7]; first compound 0.08 µM): 0.407
- relative viability ([7]; first compound 0.253 µM): 0.506
- relative viability ([7]; first compound 0.8 µM): 0.399
- relative viability ([7]; first compound 2.53 µM): 0.394
- relative viability ([7]; first compound 8 µM): 0.354
- relative viability ([8]; first compound 0.08 µM): 0.442
- relative viability ([8]; first compound 0.253 µM): 0.564
- relative viability ([8]; first compound 0.8 µM): 0.626
- relative viability ([8]; first compound 2.53 µM): 0.572
- relative viability ([8]; first compound 8 µM): 0.522
- relative viability ([9]; first compound 0.08 µM): 0.392
- relative viability ([9]; first compound 0.253 µM): 0.499
- relative viability ([9]; first compound 0.8 µM): 0.525
- relative viability ([9]; first compound 2.53 µM): 0.436
- relative viability ([9]; first compound 8 µM): 0.509
- relative viability ([10]; first compound 0.08 µM): 0.93
- relative viability ([10]; first compound 0.253 µM): 0.758
- relative viability ([10]; first compound 0.8 µM): 0.792
- relative viability ([10]; first compound 2.53 µM): 0.804
- relative viability ([10]; first compound 8 µM): 0.887
- relative viability ([11]; first compound 0.08 µM): 0.998
- relative viability ([11]; first compound 0.253 µM): 0.956
- relative viability ([11]; first compound 0.8 µM): 0.945
- relative viability ([11]; first compound 2.53 µM): 0.963
- relative viability ([11]; first compound 8 µM): 1.35
- relative viability ([12]; first compound 0.08 µM): 1
- relative viability ([12]; first compound 0.253 µM): 0.889
- relative viability ([12]; first compound 0.8 µM): 1
- relative viability ([12]; first compound 2.53 µM): 1.08
- relative viability ([12]; first compound 8 µM): 0.958
- relative viability ([13]; first compound 0.08 µM): 1
- relative viability ([13]; first compound 0.8 µM): 0.761
- relative viability ([13]; first compound 2.53 µM): 1.12
- relative viability ([13]; first compound 8 µM): 1.79
- relative viability ([14]; first compound 0.08 µM): 0.654
- relative viability ([14]; first compound 0.253 µM): 0.394
- relative viability ([14]; first compound 0.8 µM): 0.738
- relative viability ([14]; first compound 2.53 µM): 0.769
- relative viability ([14]; first compound 8 µM): 0.711
- relative viability ([15]; first compound 0.08 µM): 0.983
- relative viability ([15]; first compound 0.253 µM): 1.01
- relative viability ([15]; first compound 0.8 µM): 1.03
- relative viability ([15]; first compound 2.53 µM): 0.971
- relative viability ([15]; first compound 8 µM): 1.02
- relative viability ([16]; first compound 0.08 µM): 0.988
- relative viability ([16]; first compound 0.253 µM): 0.661
- relative viability ([16]; first compound 0.8 µM): 1.02
- relative viability ([16]; first compound 2.53 µM): 0.86
- relative viability ([16]; first compound 8 µM): 0.791
- relative viability ([17]; first compound 0.08 µM): 0.373
- relative viability ([17]; first compound 0.253 µM): 0.408
- relative viability ([17]; first compound 0.8 µM): 0.459
- relative viability ([17]; first compound 2.53 µM): 0.334
- relative viability ([17]; first compound 8 µM): 0.456
- relative viability ([18]; first compound 0.08 µM): 0.811
- relative viability ([18]; first compound 0.253 µM): 0.886
- relative viability ([18]; first compound 0.8 µM): 0.83
- relative viability ([18]; first compound 2.53 µM): 0.859
- relative viability ([18]; first compound 8 µM): 0.854
- relative viability ([19]; first compound 0.08 µM): 0.76
- relative viability ([19]; first compound 0.253 µM): 0.852
- relative viability ([19]; first compound 0.8 µM): 0.886
- relative viability ([19]; first compound 2.53 µM): 0.794
- relative viability ([19]; first compound 8 µM): 0.849
- relative viability ([20]; first compound 0.08 µM): 0.196
- relative viability ([20]; first compound 0.253 µM): 0.224
- relative viability ([20]; first compound 0.8 µM): 0.194
- relative viability ([20]; first compound 2.53 µM): 0.231
- relative viability ([20]; first compound 8 µM): 0.208
- relative viability ([21]; first compound 0.08 µM): 0.744
- relative viability ([21]; first compound 0.253 µM): 0.876
- relative viability ([21]; first compound 0.8 µM): 0.792
- relative viability ([21]; first compound 2.53 µM): 0.737
- relative viability ([21]; first compound 8 µM): 0.616
